According to article PMC3101243, “Probenecid Inhibits the Human Bitter Taste Receptor TAS2R16 and Suppresses Bitter Perception of Salicin” (PLoS ONE, 2011):

Columns and labels:
Type in all cases: cell-based
hTAS2R16 [1] = target: T1, hTAS2R16 (Homo sapiens, UniProt Q9NYV7, R222H); test: calcium flux agonist dose-response in transfected HEK-293T cells (with Gα[…]gust44)
T1 construct: gene TAS2R16
T1 sequence (Q9NYV7 1-291 R222H): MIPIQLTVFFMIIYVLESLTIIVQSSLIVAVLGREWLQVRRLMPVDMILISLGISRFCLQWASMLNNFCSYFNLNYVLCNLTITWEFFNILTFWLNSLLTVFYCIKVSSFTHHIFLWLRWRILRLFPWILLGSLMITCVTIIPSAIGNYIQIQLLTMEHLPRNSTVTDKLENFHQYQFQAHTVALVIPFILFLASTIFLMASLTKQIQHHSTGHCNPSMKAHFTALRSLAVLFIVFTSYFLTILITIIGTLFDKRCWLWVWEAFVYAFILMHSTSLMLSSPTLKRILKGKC

hTAS2R38 = target: T2, hTAS2R38 (Homo sapiens, UniProt P59533, A49P/I296V); test: calcium flux in transfected HEK-293T cells (with Gα[…]gust44), inhibition of […] PTC response
T2 construct: gene TAS2R38; PAV variant; first 45 amino acids of the rat somatostatin type 3 receptor fused for cell-surface targeting
T2 sequence (P59533 whole entry A49P/I296V, the tested form may be a part): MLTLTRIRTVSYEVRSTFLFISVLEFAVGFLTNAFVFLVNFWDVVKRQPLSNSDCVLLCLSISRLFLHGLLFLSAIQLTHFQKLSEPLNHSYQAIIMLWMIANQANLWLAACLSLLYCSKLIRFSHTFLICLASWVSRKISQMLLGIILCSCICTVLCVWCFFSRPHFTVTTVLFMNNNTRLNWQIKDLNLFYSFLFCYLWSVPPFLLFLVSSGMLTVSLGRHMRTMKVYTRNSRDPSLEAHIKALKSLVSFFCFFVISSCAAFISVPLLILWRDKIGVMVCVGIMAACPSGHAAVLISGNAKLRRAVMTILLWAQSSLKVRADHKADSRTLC

hTAS2R16 [2] = target: T1, hTAS2R16; test: calcium flux in transfected HEK-293T cells (with Gα[…]gust44), inhibition of […] salicin response; dose-response and mutant analysis
hTAS2R43 = target: T3, hTAS2R43 (Homo sapiens, UniProt P59537); test: calcium flux in transfected HEK-293T cells (with Gα[…]gust44), […] aloin
T3 construct: gene TAS2R43; W35/H212 variant; first 45 amino acids of the rat somatostatin type 3 receptor fused for cell-surface targeting
T3 sequence (P59537 1-309): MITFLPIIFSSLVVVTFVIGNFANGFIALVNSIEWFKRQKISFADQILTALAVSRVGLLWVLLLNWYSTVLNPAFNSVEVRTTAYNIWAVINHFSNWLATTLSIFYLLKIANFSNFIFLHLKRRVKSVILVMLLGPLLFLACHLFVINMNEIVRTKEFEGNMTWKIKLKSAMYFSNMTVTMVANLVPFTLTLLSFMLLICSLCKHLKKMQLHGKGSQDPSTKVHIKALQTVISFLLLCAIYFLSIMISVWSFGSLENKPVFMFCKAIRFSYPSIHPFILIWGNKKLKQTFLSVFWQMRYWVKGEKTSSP

`OCc1ccccc1O[C@@H]1O[C@H](CO)[C@@H](O)[C@H](O)[C@H]1O` [salicin] gave an EC50 (hTAS2R16 [1]) of roughly 1200 µM.
Compound `CCCN(CCC)S(=O)(=O)c1ccc(C(=O)O)cc1` [probenecid, p-(dipropylsulfamoyl)benzoic acid] has an IC50 (hTAS2R38) of 211 µM and an IC50 (hTAS2R16 [2]) of 292 µM.
`O=C1c2c(O)cccc2C([C@@H]2O[C@H](CO)[C@@H](O)[C@H](O)[C@H]2O)c2cc(CO)cc(O)c21` (stereo partly shown) [aloin] was tested, and the “calcium flux in transfected HEK-293T cells (with Gα16gust44), 3 mM aloin” value (hTAS2R43) was “Aloin induced an increase in intracellular calcium in HEK-293T cells expressing hTAS2R43”.
